How the values were obtained:
[1] = target: T1, MK2 (Homo sapiens, UniProt P49137); assay: MK2 degradation in human THP-1 monocytic cells (MSD, 24 h); format: cell-based; parameters: endogenous in cells; key to MK2 MSD THP-1 degradation 24 h GMean External Abs DC50: A (<0.001 μM); B (0.001-0.01 μM); C (0.01-0.1 μM); D (>0.1 μM); —: “-”=not tested or inactive; conditions: for Dmax: THP-1, THP-1 cells; for DC50: read-out: MK2 MSD THP-1 degradation 24 h GMean External Abs DC50
Experimental: MK2 Degradation in Human THP-1 Monoctyic Cells
(§1) The human monocytic cancer cell line THP-1 (ATCC (TIB-202)) was cultured in 96 well plates (Corning 3894) at a density of 200,000 cells per well in 100 microlitres in complete growth medium of RPMI 1640 (Gibco) pus 10% fetal Bovine Serum (Corning) and Penicillin/Streptomycin (SolarBio) at 37 degrees Celsius and 5% CO2. A serial dilution of each compound (usually 3 to 5 fold serial dilutions up to 10 separate concentration points) was added to individual wells from a 10 millimolar stock solution, at a background concentration of 0.1% DMSO and the cells were shaken at 600 rpm for 5 minutes and then were cultured for 24 hours at 37 degrees Celsius and 5% carbon dioxide. Separately, a custom MSD (MesoScaleDiscovery, L15XA-3) plate for detection of human MK2 was prepared by coating the plate with the commercial AbCam ab247272 reagent in 1×Phosphate Buffered Saline at 40 microlitres per well and incubated at 4 degrees Celsius overnight. The next day, the MSD plate was washed with 150 microlitres of Tween buffered saline, blocked with MSD blocking buffer (3% Blocker A from MSD), and washed again.
(§2) The cell plate was centrifuged at 3,200 g for 5 minutes and the supernatant was discarded and 100 microlitres of RIPA lysis buffer (containing proteinase inhibitors, Boston BioProducts BP-115D) was added and the plate was sealed and shaken on ice for 20 minutes. The plate was centrifuged as before and 70 microlitres of sample lysate was added to the MSD plates and they were shaken at room temperature for 1 hour at 600 rpm. The MSD plate was washed 3 times as before and then the primary MK2 detection antibody (Santa Cruz sc-100393) was added at a final concentration of 1 microgram per ml at 25 microlitres per well and shaken at room temperature for 1 hour at 600 rpm.
(§3) After 3 more washes, the secondary detection antibody (SULFO-Tag anti rabbit antibody R32AB-5) was added at a final concentration of 1 microgram per ml at 25 microlitres per well and shaken at room temperature for 1 hour at 600 rpm. After 3 more washes, the 1×MSD (diluted from 5× concentrate with water) reading buffer was added at 150 microlitres per well and read on the MSD instrument Meso Sector S 600.
(§4) The inhibition/degradation curves and DC50 values were plotted and calculated using XL Fit (version v5.3.1.3) using equation 201 and a 4 parameter logistic model whereby fit=(A+((B−A)/(1+((x/C)D))) where A is the Bottom and B is the Top and C is the IC50 and D is the slope and high C is the signal for the DMSO treated cells and Low C is the signal is the signal for the lysis buffer.

[2] = target: T1, MK2; assay: MK2 degradation in human SW1353 cells (MSD, 24 h); format: cell-based; parameters: endogenous in cells; host or cells: SW-1353 (ATCC HTB-94); key to MK2 MSD SW1353 degradation 24 h GMean External Abs DC50: A (<0.001 μM); B (0.001-0.01 μM); C (0.01-0.1 μM); D (>0.1 μM); —: “-”=not tested or inactive; key to MK2 MSD SW 1353 24 h Dmax %: —: “-”=not tested or inactive; conditions: for Dmax: read-out: MK2 MSD SW 1353 24 h Dmax %; for DC50: read-out: MK2 MSD SW1353 degradation 24 h GMean External Abs DC50
Experimental: MK2 Degradation in Human SW1353 Cells
as §1, with “chondrocyte” for “monocytic”, “SW-1353 (ATCC(HTB-94))” for “THP-1 (ATCC (TIB-202))”, “Leibovitz's L-15 Medium” for “RPMI 1640”, “Celsius.” for “Celsius and 5% CO2.”, “Celsius.” for “Celsius and 5% carbon dioxide.”
as §2, §3, §4

T1 sequence (P49137 whole entry): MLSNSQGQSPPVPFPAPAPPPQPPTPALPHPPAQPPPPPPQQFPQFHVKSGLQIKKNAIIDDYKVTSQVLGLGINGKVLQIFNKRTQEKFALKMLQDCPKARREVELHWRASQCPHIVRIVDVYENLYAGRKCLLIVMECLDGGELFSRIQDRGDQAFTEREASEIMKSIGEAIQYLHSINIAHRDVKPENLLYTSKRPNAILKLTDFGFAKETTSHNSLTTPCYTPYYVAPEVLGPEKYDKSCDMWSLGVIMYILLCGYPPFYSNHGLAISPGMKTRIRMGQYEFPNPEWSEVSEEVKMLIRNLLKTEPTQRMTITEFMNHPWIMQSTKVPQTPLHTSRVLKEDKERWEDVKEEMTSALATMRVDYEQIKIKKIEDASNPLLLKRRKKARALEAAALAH

Dmax [1] [%]	DC50 ([1]; THP-1 cells) [nM]	Dmax [2] [%]	DC50 [2] [nM]	MK2 MSD THP-1 degradation 24 h GMean External Abs DC50 ([1]; THP-1 cells)	MK2 MSD SW 1353 24 h Dmax % [2]	MK2 MSD SW1353 degradation 24 h GMean External Abs DC50 [2]	SMILES
> 75	1 to 10	> 75	1 to 10				C[C@@H]1CNc2c(sc3ccc4nc(-c5cc(N6CCC(CN7CCC(c8cccc9c8n(C)c(=O)n9C8CCC(=O)NC8=O)CC7)CC6)ccc5F)ccc4c23)C(=O)N1 (stereo partly shown) [Compound I-284]
> 75	< 1	> 75	< 1				Cn1c(=O)n(C2CCC(=O)NC2=O)c2ccc(N3CC(CN4CCN(c5ccc(-c6nccc(-c7cc8c([nH]7)C7(CC7)CNC8=O)n6)c(F)c5)CC4)C3)cc21 (stereo not shown) [Compound I-403, 3-(5-(3-((4-(3-fluoro-4-(4-(4′-oxo-1′,4′,5′,6′-tetrahydrospiro[cyclopropane-1,7′-pyrrolo[3,2-c]pyridin]-2′-yl)pyrimidin-2-yl)phenyl)piperazin-1-yl)methyl)azetidin-1-yl)-3-methyl-2-oxo-2,3-dihydro-1H-benzo[d]imidazol-1-yl)piperidine-2,6-dionee]
50 to 75	10 to 100	> 75	10 to 100				C[C@@H]1CNc2c(sc3ccc4nc(-c5ccc(C#CCCNC(=O)CCCCCCCCCc6ccc7c(c6)n(C)c(=O)n7C6CCC(=O)NC6=O)cc5)ccc4c23)C(=O)N1 (stereo partly shown) [Compound I-53]
< 50	> 100	50 to 75	10 to 100				Cn1c(=O)n(C2CCC(=O)NC2=O)c2cccc(CCN3CCN(c4ccc(-c5nccc(-c6cc7c([nH]6)C6(CC6)CNC7=O)c5F)cc4)CC3)c21 (stereo not shown) [Compound I-431]
> 75	< 1	> 75	< 1				C[C@@H]1CNc2c(sc3ccc4nc(-c5cccc(N6CCN(CCCc7ccc8c(c7)n(C)c(=O)n8C7CCC(=O)NC7=O)CC6)c5)ccc4c23)C(=O)N1 (stereo partly shown) [Compound I-118]
< 50	> 100	< 50	> 100				C[C@@H]1CNc2c(sc3ccc4nc(-c5cc(N6CCN(CC7CCN(c8ccc9c(c8)n(C)c(=O)n9C8CCC(=O)NC8=O)CC7)CC6)nc(C(C)(C)O)c5)ccc4c23)C(=O)N1 (stereo partly shown) [Compound I-219]
50 to 75		> 75	< 1	—			Cc1cc(N2CCN(CCCc3ccc4c(c3)n(C)c(=O)n4C3CCC(=O)NC3=O)CC2)ccc1-c1ccc2c(ccc3sc4c(c32)NC[C@@H](C)NC4=O)n1 (stereo partly shown) [Compound I-260]
	1 to 10		10 to 100		—		C[C@@H]1CNc2c(sc3ccc4nc(-c5cccc(C6CCN(CCN7CCC(CCc8cccc9c8n(C)c(=O)n9C8CCC(=O)NC8=O)CC7)CC6)c5)ccc4c23)C(=O)N1 (stereo partly shown) [Compound I-296]
50 to 75	10 to 100	50 to 75	1 to 10				C[C@@H]1CNc2c(sc3ccc4nc(N5CCCN(C6CC7(CCN(c8ccc9c(c8)n(C)c(=O)n9C8CCC(=O)NC8=O)CC7)C6)CC5)ccc4c23)C(=O)N1 (stereo partly shown) [Compound I-411]
> 75	< 1	> 75	< 1				C[C@@H]1CNc2c(sc3ccc4nc(-c5ccc(N6CCC(CN7CCN(c8ccc9c(c8)n(C)c(=O)n9C8CCC(=O)NC8=O)CC7)CC6)cc5)ccc4c23)C(=O)N1 (stereo partly shown) [Compound I-314]
> 75	< 1	> 75	< 1				Cn1c(=O)n(C2CCC(=O)NC2=O)c2ccc(C3CCN(CC4CCN(c5ccc(-c6cc(-c7cc8c([nH]7)CCNC8=O)ccn6)c(F)c5)CC4)CC3)cc21 (stereo not shown) [Compound I-305]
> 75	< 1	> 75	< 1				C[C@@H]1CNc2c(sc3ccc4nc(-c5ccc([C@H]6CC[C@H](CN7CCN(c8ccc9c(c8)n(C)c(=O)n9C8CCC(=O)NC8=O)CC7)CC6)nc5)ccc4c23)C(=O)N1 (stereo partly shown) [Compound I-232]
> 75	10 to 100				—	—	O=C1CCN(c2cncc3c(N4CC(CN5CCN(c6ccc(-c7cc(-c8cc9c([nH]8)CCNC9=O)ccn7)cc6)CC5)C4)cccc23)C(=O)N1 [Compound I-197]
> 75	< 1	> 75	< 1				C[C@@H]1CNc2c(sc3ccc4nc(-c5ccc(N6CCN(C(=O)COCCOCCOCCOCCc7ccc8c(c7)n(C)c(=O)n8C7CCC(=O)NC7=O)CC6)cc5)ccc4c23)C(=O)N1 (stereo partly shown) [Compound I-43]
> 75	1 to 10	> 75	< 1				C[C@@H]1CNc2c(sc3ccc4nc(N5CCC6(CC5)CN(C5CCN(c7cccc8c7n(C)c(=O)n8C7CCC(=O)NC7=O)CC5)C6)ccc4c23)C(=O)N1 (stereo partly shown) [Compound I-441]
> 75	< 1	> 75	< 1				Cc1cc(-c2cc(-c3cc4c([nH]3)C3(CC3)CNC4=O)ccn2)cc(C)c1N1CCN(CC2CCN(c3ccc4c(c3)n(C)c(=O)n4C3CCC(=O)NC3=O)CC2)CC1 (stereo not shown) [Compound I-194]
> 75	< 1	> 75	< 1				C[C@@H]1CNc2c(sc3ccc4nc(-c5cncc(N6CCN(CC7CCN(c8ccc9c(c8)n(C)c(=O)n9C8CCC(=O)NC8=O)CC7)CC6)c5)ccc4c23)C(=O)N1 (stereo partly shown) [Compound I-161]
> 75	< 1	> 75	< 1				C[C@@H]1CNc2c(sc3ccc4nc(-c5cncc(N6CCN(CCCCCc7cccc8c7n(C)c(=O)n8C7CCC(=O)NC7=O)CC6)c5)ccc4c23)C(=O)N1 (stereo partly shown) [Compound I-156]
> 75	1 to 10	> 75	1 to 10				C[C@@H]1CNc2c(sc3ccc4nc(N5CCC(CN6CCN(c7ccc8c(c7)n(C)c(=O)n8C7CCC(=O)NC7=O)CC6)CC5)ccc4c23)C(=O)N1 (stereo partly shown) [Compound I-264]
< 50	> 100	< 50				—	C[C@@H]1Cc2oc(-c3ccnc(-c4ccc(N5CCN(CC6CCN(c7ccc8c(c7)n(C)c(=O)n8C7CCC(=O)NC7=O)CC6)CC5)nc4)c3)cc2C(=O)N1 (stereo partly shown) [Compound I-209]
< 50	> 100	< 50	> 100				C[C@@H]1CNc2c(sc3ccc4nc(N5CCCN(CC6CCN(c7cccc8c7n(C)c(=O)n8C7CCC(=O)NC7=O)CC6)CC5)ccc4c23)C(=O)N1 (stereo partly shown) [Compound I-442]

SMILES	Dmax [1] [%]	DC50 ([1]; THP-1 cells) [nM]	Dmax [2] [%]	DC50 [2] [nM]	MK2 MSD THP-1 degradation 24 h GMean External Abs DC50 ([1]; THP-1 cells)	MK2 MSD SW 1353 24 h Dmax % [2]	MK2 MSD SW1353 degradation 24 h GMean External Abs DC50 [2]
C[C@@H]1CNc2c(sc3ccc4nc(N5C6CCC5CN(CC5CCN(c7ccc8c(c7)n(C)c(=O)n8C7CCC(=O)NC7=O)CC5)C6)ccc4c23)C(=O)N1 (stereo partly shown) [Compound I-434]	< 50	> 100	< 50	> 100			
Cn1c(=O)n(C2CCC(=O)NC2=O)c2cccc(N3CCC(CN4CCC5(CC4)CNC(=O)c4c5[nH]c5c4CCc4cnc(-c6ccccc6F)cc4-5)CC3)c21 (stereo not shown) [Compound I-316]	< 50	> 100	< 50	> 100			

From patent US20230135894A1, “MK2 DEGRADERS AND USES THEREOF” (Kymera Therapeutics, Inc., priority 2021, published 2023)
